Publication PMC6946680, “Modulation of brain cation-Cl^− cotransport via the SPAK kinase inhibitor ZT-1a” (Nature Communications, 2020)
Several values for one entry are separate records, joined by “and”; a condition that tells them apart may be missing. Equal entries are not always repeated.

How the values were obtained:
[1] = system: MAPKAP-K2; assay: Kinase profiling panel; assay type: biochemical
Procedure: (§1) Supplementary Table 2. ZT-1a kinase profiling data6.
(§2) ZT-1a was tested at 10 and 1 µM against a panel of 140 recombinant kinases in an enzymatic
(§3) activity-based assay performed by the International Centre for Kinase Profiling in the MRC
(§4) Protein Phosphorylation and Ubiquitylation Unit. Values represent % residual kinase activity

[2] = system: EPH-B1; assay: Kinase profiling panel; assay type: biochemical
Procedure: as §1, §2, §3, §4

[3] = system: BTK; assay: Kinase profiling panel; assay type: biochemical
Procedure: as §1, §2, §3, §4

[4] = system: HER4; assay: Kinase profiling panel; assay type: biochemical
Procedure: as §1, §2, §3, §4

[5] = system: TTK; assay: Kinase profiling panel; assay type: biochemical
Procedure: as §1, §2, §3, §4

[6] = system: MAP4K5; assay: Kinase profiling panel; assay type: biochemical
Procedure: as §1, §2, §3, §4

[7] = system: NEK2a; assay: Kinase profiling panel; assay type: biochemical
Procedure: as §1, §2, §3, §4

[8] = system: ULK2; assay: Kinase profiling panel; assay type: biochemical
Procedure: as §1, §2, §3, §4

[9] = system: TSSK1; assay: Kinase profiling panel; assay type: biochemical
Procedure: as §1, §2, §3, §4

[10] = system: TTBK2; assay: Kinase profiling panel; assay type: biochemical
Procedure: as §1, §2, §3, §4

[11] = system: MARK1; assay: Kinase profiling panel; assay type: biochemical
Procedure: as §1, §2, §3, §4

[12] = system: GCK; assay: Kinase profiling panel; assay type: biochemical
Procedure: as §1, §2, §3, §4

[13] = system: DYRK3; assay: Kinase profiling panel; assay type: biochemical
Procedure: as §1, §2, §3, §4

[14] = system: JAK2; assay: Kinase profiling panel; assay type: biochemical
Procedure: as §1, §2, §3, §4

[15] = system: PRK2; assay: Kinase profiling panel; assay type: biochemical
Procedure: as §1, §2, §3, §4

[16] = system: HIPK1; assay: Kinase profiling panel; assay type: biochemical
Procedure: as §1, §2, §3, §4

[17] = system: EPH-A4; assay: Kinase profiling panel; assay type: biochemical
Procedure: as §1, §2, §3, §4

[18] = system: ERK5; assay: Kinase profiling panel; assay type: biochemical
Procedure: as §1, §2, §3, §4

[19] = system: p38b MAPK; assay: Kinase profiling panel; assay type: biochemical
Procedure: as §1, §2, §3, §4

[20] = system: CK1γ2; assay: Kinase profiling panel; assay type: biochemical
Procedure: as §1, §2, §3, §4

[21] = system: BRSK1; assay: Kinase profiling panel; assay type: biochemical
Procedure: as §1, §2, §3, §4

[22] = system: PIM1; assay: Kinase profiling panel; assay type: biochemical
Procedure: as §1, §2, §3, §4

[23] = system: MLK3; assay: Kinase profiling panel; assay type: biochemical
Procedure: as §1, §2, §3, §4

[24] = system: PKBb; assay: Kinase profiling panel; assay type: biochemical
Procedure: as §1, §2, §3, §4

[25] = system: VEG-FR; assay: Kinase profiling panel; assay type: biochemical
Procedure: as §1, §2, §3, §4

[26] = system: p38g MAPK; assay: Kinase profiling panel; assay type: biochemical
Procedure: as §1, §2, §3, §4

[27] = system: MNK1; assay: Kinase profiling panel; assay type: biochemical
Procedure: as §1, §2, §3, §4

[28] = system: HIPK3; assay: Kinase profiling panel; assay type: biochemical
Procedure: as §1, §2, §3, §4

[29] = system: SIK2; assay: Kinase profiling panel; assay type: biochemical
Procedure: as §1, §2, §3, §4

[30] = system: MPSK1; assay: Kinase profiling panel; assay type: biochemical
Procedure: as §1, §2, §3, §4

[31] = system: SGK1; assay: Kinase profiling panel; assay type: biochemical
Procedure: as §1, §2, §3, §4

[32] = system: PAK4; assay: Kinase profiling panel; assay type: biochemical
Procedure: as §1, §2, §3, §4

[33] = system: IKKb; assay: Kinase profiling panel; assay type: biochemical
Procedure: as §1, §2, §3, §4

[34] = system: MAP4K3; assay: Kinase profiling panel; assay type: biochemical
Procedure: as §1, §2, §3, §4

[35] = system: IR; assay: Kinase profiling panel; assay type: biochemical
Procedure: as §1, §2, §3, §4

[36] = system: MLK1; assay: Kinase profiling panel; assay type: biochemical
Procedure: as §1, §2, §3, §4

[37] = system: WNK1; assay: Kinase profiling panel; assay type: biochemical
Procedure: as §1, §2, §3, §4

[38] = system: MAPKAP-K3; assay: Kinase profiling panel; assay type: biochemical
Procedure: as §1, §2, §3, §4

[39] = system: PKD1; assay: Kinase profiling panel; assay type: biochemical
Procedure: as §1, §2, §3, §4

[40] = target: panel of 140 recombinant kinases; assay type: biochemical
Procedure: as §1, §2, §3, §4

[41] = system: tSPAK tOSR1; assay: Immunoblot of total SPAK/OSR1 in ischemic mouse brain membrane and cytosol fractions; assay type: in vivo; conditions: Membrane, single samples
Text: Supplement 41467_2019_13851_MOESM4_ESM.zip/Source Data.xlsx, sheet "Fig S11b and c" | column: tSPAK tOSR1/Na K pump (fold veh-CL)

## Cc1cc(C(C#N)c2ccc(Cl)cc2)c(Cl)cc1NC(=O)c1cc(Cl)ccc1O (stereo not drawn) [ZT-1a, 5-chloro-N-(5-chloro-4-((4-chlorophenyl)(cyano)methyl)-2-methylphenyl)-2-hydroxybenzamide]
[1]; 1 µM
  % residual kinase activity: 91±13%
[1]; 10 µM
  % residual kinase activity: 13±7%
[2]; 1 µM
  % residual kinase activity: 77±15%
[2]; 10 µM
  % residual kinase activity: 80±19%
[3]; 1 µM
  % residual kinase activity: 113±1%
[3]; 10 µM
  % residual kinase activity: 73±2%
[4]; 1 µM
  % residual kinase activity: 85±8%
[4]; 10 µM
  % residual kinase activity: 84±1%
[5]; 1 µM
  % residual kinase activity: 104±2%
[5]; 10 µM
  % residual kinase activity: 91±5%
[6]; 1 µM
  % residual kinase activity: 95±28%
[6]; 10 µM
  % residual kinase activity: 76±9%
[7]; 1 µM
  % residual kinase activity: 85±12%
[7]; 10 µM
  % residual kinase activity: 91±6%
[8]; 1 µM
  % residual kinase activity: 110±11%
[8]; 10 µM
  % residual kinase activity: 49±9%
[9]; 1 µM
  % residual kinase activity: 99±2%
[9]; 10 µM
  % residual kinase activity: 74±6%
[10]; 1 µM
  % residual kinase activity: 101±32%
[10]; 10 µM
  % residual kinase activity: 98±34%
[11]; 1 µM
  % residual kinase activity: 104±16%
[11]; 10 µM
  % residual kinase activity: 91±5%
[12]; 1 µM
  % residual kinase activity: 112±4%
[12]; 10 µM
  % residual kinase activity: 97±3%
[13]; 1 µM
  % residual kinase activity: 113±6%
[13]; 10 µM
  % residual kinase activity: 56±15%
[14]; 1 µM
  % residual kinase activity: 125±6%
[14]; 10 µM
  % residual kinase activity: 123±8%
[15]; 1 µM
  % residual kinase activity: 118±4%
[15]; 10 µM
  % residual kinase activity: 120±7%
[16]; 1 µM
  % residual kinase activity: 98±13%
[16]; 10 µM
  % residual kinase activity: 90±4%
[17]; 1 µM
  % residual kinase activity: 59±33%
[17]; 10 µM
  % residual kinase activity: 90±11%
[18]; 1 µM
  % residual kinase activity: 120±9%
[18]; 10 µM
  % residual kinase activity: 114±5%
[19]; 1 µM
  % residual kinase activity: 124±1%
[19]; 10 µM
  % residual kinase activity: 124±0%
[20]; 1 µM
  % residual kinase activity: 112±12%
[20]; 10 µM
  % residual kinase activity: 124±23%
[21]; 1 µM
  % residual kinase activity: 108±14%
[21]; 10 µM
  % residual kinase activity: 88±22%
[22]; 1 µM
  % residual kinase activity: 108±19%
[22]; 10 µM
  % residual kinase activity: 101±8%
[23]; 1 µM
  % residual kinase activity: 119±11%
[23]; 10 µM
  % residual kinase activity: 114±3%
[24]; 1 µM
  % residual kinase activity: 76±14%
[24]; 10 µM
  % residual kinase activity: 51±13%
[25]; 1 µM
  % residual kinase activity: 113±10%
[25]; 10 µM
  % residual kinase activity: 88±28%
[26]; 1 µM
  % residual kinase activity: 100±11%
[26]; 10 µM
  % residual kinase activity: 100±6%
[27]; 1 µM
  % residual kinase activity: 78±19%
[27]; 10 µM
  % residual kinase activity: 87±2%
[28]; 1 µM
  % residual kinase activity: 84±3%
[28]; 10 µM
  % residual kinase activity: 76±2%
[29]; 1 µM
  % residual kinase activity: 105±16%
[29]; 10 µM
  % residual kinase activity: 76±8%
[30]; 1 µM
  % residual kinase activity: 110±6%
[30]; 10 µM
  % residual kinase activity: 105±2%
[31]; 1 µM
  % residual kinase activity: 73±14%
[31]; 10 µM
  % residual kinase activity: 58±5%
[32]; 1 µM
  % residual kinase activity: 81±16%
[32]; 10 µM
  % residual kinase activity: 51±3%
[33]; 1 µM
  % residual kinase activity: 101±0%
[33]; 10 µM
  % residual kinase activity: 78±3%
[34]; 1 µM
  % residual kinase activity: 134±5%
[34]; 10 µM
  % residual kinase activity: 88±2%
[35]; 1 µM
  % residual kinase activity: 105±2%
[35]; 10 µM
  % residual kinase activity: 86±13%
[36]; 1 µM
  % residual kinase activity: 94±4%
[36]; 10 µM
  % residual kinase activity: 81±21%
[37]; 1 µM
  % residual kinase activity: 125±17%
[37]; 10 µM
  % residual kinase activity: 122±35%
[38]; 1 µM
  % residual kinase activity: 96±26%
[38]; 10 µM
  % residual kinase activity: 72±8%
[39]; 1 µM
  % residual kinase activity: 89±0%
[39]; 10 µM
  % residual kinase activity: 79±10%
[40]; 1 µM ZT-1a
  kinases of the 140 tested with >50% inhibition: only a single kinase
[40]; 1 µM ZT-1a vs DMSO control
  share of the 140 kinases not inhibited by >70%: 98%
[41]
  tSPAK tOSR1/Na K pump (fold veh-CL): 0.93 fold veh-CL and 1.11 fold veh-CL and 1.70 fold veh-CL and 1.17 fold veh-CL and 1.58 fold veh-CL
